From patent US9303042B2, “Triazolothienopyrimidine compound inhibitors of urea transporters and methods of using inhibitors” (The Regents of the University of California, priority 2012, dated 2016) come the findings set out here.

One data set has as its target T1, TMEM16A (Homo sapiens, UniProt Q5XXA6).
T1 construct: expressed in transfected cells
T1 sequence (Q5XXA6 1-986): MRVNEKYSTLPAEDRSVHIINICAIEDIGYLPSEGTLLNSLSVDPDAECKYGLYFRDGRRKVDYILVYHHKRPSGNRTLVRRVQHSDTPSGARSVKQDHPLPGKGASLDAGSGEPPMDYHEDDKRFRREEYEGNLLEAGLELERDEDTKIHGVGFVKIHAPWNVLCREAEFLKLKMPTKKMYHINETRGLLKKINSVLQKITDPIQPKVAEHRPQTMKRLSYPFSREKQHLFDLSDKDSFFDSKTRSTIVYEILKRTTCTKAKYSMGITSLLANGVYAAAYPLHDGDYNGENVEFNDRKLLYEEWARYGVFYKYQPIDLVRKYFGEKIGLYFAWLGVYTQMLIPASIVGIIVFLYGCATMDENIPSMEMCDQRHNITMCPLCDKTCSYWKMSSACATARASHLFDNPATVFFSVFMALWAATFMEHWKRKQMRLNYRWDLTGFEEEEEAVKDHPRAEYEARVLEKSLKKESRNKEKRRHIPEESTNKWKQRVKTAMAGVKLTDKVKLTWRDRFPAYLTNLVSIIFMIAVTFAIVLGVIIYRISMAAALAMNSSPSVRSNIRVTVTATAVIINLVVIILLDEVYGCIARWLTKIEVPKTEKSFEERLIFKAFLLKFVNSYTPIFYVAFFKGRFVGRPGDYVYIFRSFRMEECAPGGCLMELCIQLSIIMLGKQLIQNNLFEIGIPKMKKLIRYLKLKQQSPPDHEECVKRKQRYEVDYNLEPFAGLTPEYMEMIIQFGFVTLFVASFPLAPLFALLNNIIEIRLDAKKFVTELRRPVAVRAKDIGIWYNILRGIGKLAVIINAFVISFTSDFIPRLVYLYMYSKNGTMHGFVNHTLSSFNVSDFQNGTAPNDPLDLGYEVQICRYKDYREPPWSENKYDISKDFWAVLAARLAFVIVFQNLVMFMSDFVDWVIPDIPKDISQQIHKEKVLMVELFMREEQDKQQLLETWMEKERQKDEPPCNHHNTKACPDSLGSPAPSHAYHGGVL
Nature of the data set: TMEM16A calcium-activated chloride conductance by short-circuit current. In kind it is cell-based. To be noted: 10 μM, ATP-activated. As to the method:
CFTR chloride conductance was measured by short-circuit current analysis in Fisher rat thyroid (FRT) cells stably expressing CFTR, as described (see, e.g., Ma et al., J. Biol. Chem. (2002), supra). CFTR chloride conductance was stimulated by forskolin and inhibited by a thiazolidinone compound that inhibits CFTR (CFTRinh-172). TMEM16A calcium-activated chloride conductance was measured by short-circuit current analysis in FRT cells stably expressing TMEM16A, as described (see, e.g., Namkung et al., J. Biol. Chem. 286:2365-2374, 2011. TMEM16A was stimulated by ATP and inhibited by tannic acid (100 μM). Cytotoxicity was measured in MDCK using the MTT assay [3(4,5-dimethyl-thiazol-2-yl)-2,5-diphenyl tetrazolium bromide] by standard procedures.

The next data set relates to MDCK cells. Nature of the data set: MTT cytotoxicity assay. In kind it is cell-based, canine. The following applies: up to 10 μM, 24 h.
In a further data set the target is T2, human UT-B (Homo sapiens, UniProt Q13336).
T2 construct: endogenous in cells; host or cells: erythrocytes in human venous whole blood
T2 sequence (Q13336 1-389): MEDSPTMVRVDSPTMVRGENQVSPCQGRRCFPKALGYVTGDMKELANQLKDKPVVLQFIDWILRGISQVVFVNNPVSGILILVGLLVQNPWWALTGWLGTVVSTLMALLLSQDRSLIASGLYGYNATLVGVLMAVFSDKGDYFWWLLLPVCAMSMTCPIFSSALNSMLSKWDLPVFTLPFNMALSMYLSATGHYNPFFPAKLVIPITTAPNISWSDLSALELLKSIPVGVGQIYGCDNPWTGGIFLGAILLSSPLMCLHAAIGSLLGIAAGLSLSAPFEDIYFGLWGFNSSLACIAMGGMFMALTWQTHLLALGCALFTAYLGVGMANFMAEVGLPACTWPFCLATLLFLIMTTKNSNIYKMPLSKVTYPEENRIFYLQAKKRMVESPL
Nature of the data set: Stopped-flow light scattering assay of erythrocyte urea transport, human erythrocytes. In kind it is cell-based. To be noted: urea influx, 100 mM inwardly directed urea gradient. As to the method: Erythrocyte urea and water permeabilities were measured by stopped-flow light scattering using a Hi-Tech Sf-51 instrument (Wiltshire, UK). For measurement of urea permeability, dilutions of whole blood (mouse or human) in PBS (hematocrit ˜0.5%) were incubated with test compounds for 5 min and then subjected to a 100-mM inwardly directed urea gradient. After an initial osmotic shrinking phase, the kinetics of increasing cell volume caused by urea influx was measured as the time-course of 90° scattered light intensity at 530 nm, with increasing cell volume producing reduced scattered light intensity. Urea permeability and percentage inhibition were computed as described (see, e.g., Levin et al., FASEB J. supra, 2007)). In some experiments, different urea gradients (25-200 mM) were used, or inhibitor was added only to the erythrocyte-containing or urea-containing solutions. […] Osmotic water permeability was measured using a 100 mM gradient of sucrose.
UT-B inhibition potency was assayed quantitatively by stopped-flow light scattering from the kinetics of urea influx in response to an inwardly directed urea gradient (see Materials and Methods above). […]
Measurements were done using a Hi-Tech Sf-51 instrument (Wiltshire, UK). […] The kinetics of increasing cell volume caused by urea influx was measured as the time-course of 90° scattered light intensity at 530 nm. […]

As usually defined, the IC50 is the point on the concentration scale where inhibition reaches its midpoint. A high value points to weaker potency. Turning to `CCc1ccc(S(=O)(=O)c2nnn3c2nc(NCc2cccs2)c2sccc23)cc1` [UTBinh-14, [3-(4-Ethyl-benzenesulfonyl)-thieno[2,3-e][1,2,3]triazolo[1,5-a]pyrimidin-5-yl]-thiophen-2-ylmethylamine], the “inhibition of TMEM16A chloride conductance” value on TMEM16A is reported as “no significant inhibition”. Further, the cytotoxicity entry in the data set on MDCK cells was “no cytotoxicity”. At human UT-B, this compound registered an IC50 of 10.3 nM.
